Source: patent US20180353501A1 (Arvinas, Inc., priority 2017, published 2018)

Tests used:
[1] = biological target: T1, p38α:PROTAC:VHL ternary complex (Homo sapiens, UniProt P40337+Q16539); assay: In vitro ternary complex pull-down with GST-VBC bait, purified p38α; format: binding
T1 construct: encodes a region spanning amino acids 2-360 of the human p38α kinase; made in house; host or cells: E. coli (BL21-CodonPlus(DE3)-RIPL for p38α; BL21(DE3) for GST-VBC)
Procedure: FIGS. 14A, 14B, and 14C. p38α selectivity is discriminated by ternary complex formation. (A) Only p38α incubated in the presence of exemplary compound 50 can be immunoprecipitated with GST-tagged VHL/EloB/EloC (VBC). Immobilized VBC was used as a bait to trap purified p38α in the presence of vehicle (DMSO), compound 50, or compound 46 (represented in micromolar concentrations). The rightmost lane represents a 1:25 dilution of initial input protein used in each pull-down. (B) Proximity-based AlphaLISA assay detects significant p38α:compound 50:VHL ternary complex, but no p38α:compound 46:VHL ternary complex. His-p38α and GST-VBC were incubated in the presence of increasing concentrations of compound 50 and compound 46 and the extent of ternary complex formation was assessed by excitation with incident light with 1=680 nm and capture of the emission light at 1=615 nm. Error bars represent the SD from quadruplicate experiments. […] FLAGimmunoprecipitated lysates were separated by SDS-PAGE and assessed via western blots detecting HA (Ub). […]
Following this logic, to the present disclosure seeks to describe the selectivity of exemplary compound 50 for p38α at the ternary complex level through the use of an in vitro ternary complex pull-down assay. […] Similarly, exemplary PROTACs 46 and 50 were evaluated in a proximity-based luminescence assay (AlphaLISA) to detect ternary complex formation. […]

[2] = biological target: T2, MET (Homo sapiens, UniProt P08581); assay: KINOMEscan in vitro kinase binding; settings: screened at 1000 nM
T2 construct: purchased DiscoverRx Corporation (KINOMEscan platform, service)
Procedure: (§1) PROTAC in vitro binding affinities (Kd) to c-Met was determined using the KINOMEscan™ platform (DiscoverRx Corporation). The compounds were solubilized in DMSO and sent to DiscoverRx Corporation as 10 μM stock solutions.

[3] = biological target: T3, MET (M1250T) (Homo sapiens, UniProt P08581, M1250T); assay: KINOMEscan in vitro kinase binding; settings: screened at 1000 nM; lower number = stronger binding
T3 construct: purchased DiscoverRx Corporation (KINOMEscan platform, service)
Procedure: as §1

[4] = biological target: T4, MET (Y1235D) (Homo sapiens, UniProt P08581, Y1235D); assay: KINOMEscan in vitro kinase binding; settings: screened at 1000 nM; lower number = stronger binding
T4 construct: purchased DiscoverRx Corporation (KINOMEscan platform, service)
Procedure: as §1

T1 sequence (Q16539 2-360 limits assumed): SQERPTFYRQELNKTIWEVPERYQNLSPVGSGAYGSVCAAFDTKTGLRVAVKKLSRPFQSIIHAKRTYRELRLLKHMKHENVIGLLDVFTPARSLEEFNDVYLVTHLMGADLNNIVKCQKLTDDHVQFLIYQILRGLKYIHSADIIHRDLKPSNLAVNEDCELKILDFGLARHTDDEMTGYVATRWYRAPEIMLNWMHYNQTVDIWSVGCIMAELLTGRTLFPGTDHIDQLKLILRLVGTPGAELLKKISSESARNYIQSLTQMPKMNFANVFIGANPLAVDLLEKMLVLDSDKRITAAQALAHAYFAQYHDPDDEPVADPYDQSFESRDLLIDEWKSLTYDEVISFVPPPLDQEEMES
T1 sequence (P40337 whole entry, the tested form may be a part): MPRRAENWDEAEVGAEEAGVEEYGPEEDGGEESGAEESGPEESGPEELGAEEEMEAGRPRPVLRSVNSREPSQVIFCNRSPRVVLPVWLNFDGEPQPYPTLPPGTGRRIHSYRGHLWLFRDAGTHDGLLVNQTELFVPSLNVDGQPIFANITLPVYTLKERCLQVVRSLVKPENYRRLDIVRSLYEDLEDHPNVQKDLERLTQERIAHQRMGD
T1 sequence (Q15370 whole entry partner, the tested form may be a part): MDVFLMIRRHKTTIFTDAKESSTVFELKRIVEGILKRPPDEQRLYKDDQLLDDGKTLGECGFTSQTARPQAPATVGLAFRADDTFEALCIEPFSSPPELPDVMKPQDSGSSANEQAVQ
T1 sequence (Q15369 whole entry partner, the tested form may be a part): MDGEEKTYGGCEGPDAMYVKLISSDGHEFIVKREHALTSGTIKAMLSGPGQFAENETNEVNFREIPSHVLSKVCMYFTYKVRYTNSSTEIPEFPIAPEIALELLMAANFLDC

COc1cc2c(Oc3ccc(NC(=O)C4(C(=O)Nc5ccc(F)cc5)CC4)cc3F)ccnc2cc1OCCOCCOCCOc1cc(-c2scnc2C)ccc1CNC(=O)[C@@H]1C[C@@H](O)CN1C(=O)[C@H](C(C)C)N1Cc2ccccc2C1=O [compound 46]
enrichment of purified p38α on GST-VBC bait [1]: no detectable enrichment

COc1cc2c(Oc3ccc(NC(=O)C4(C(=O)Nc5ccc(F)cc5)CC4)cc3F)ccnc2cc1OCCCCOCCCCOCC(=O)N[C@H](C(=O)N1C[C@H](O)C[C@H]1C(=O)NCc1ccc(-c2scnc2C)cc1)C(C)(C)C [compound 50, N-(3-fluoro-4-((7-(4-(4-(2-(((S)-1-((2S,4R)-4-hydroxy-2-((4-(4-methylthiazol-5-yl)benzyl)carbamoyl)pyrrolidin-1-yl)-3,3-dimethyl-1-oxobutan-2-yl)amino)-2-oxoethoxy)butoxy)buto-xy)-6-methoxyquinolin-4-yl)oxy)phenyl)-N-(4-fluorophenyl)cyclopropane-1,1-dicarboxa-mide]
enrichment of purified p38α on GST-VBC bait [1]: substantial enrichment of purified p38α

COc1cc2c(Oc3ccc(NC(=O)C4(C(=O)Nc5ccc(F)cc5)CC4)cc3F)ccnc2cc1OCCCOCCCOCCC(=O)N[C@H](C(=O)N1C[C@H](O)C[C@H]1C(=O)NCc1ccc(-c2scnc2C)cc1)C(C)(C)C [Example 1]
binding to MET (in words) [2]: strong binding to MET
% Ctrl ([2]; lower number = stronger binding): 0.75 % Ctrl
% Ctrl [3]: 6.0 % Ctrl
% Ctrl [4]: 8.2 % Ctrl
